Experimental data from paper PMC9532703, “A novel small molecule RK-019 inhibits FGFR2-amplification gastric cancer cell proliferation and induces apoptosis in vitro and in vivo” (Frontiers in Pharmacology, 2022).

Columns and labels:
Assay in all cases: Kinase selectivity panel
Type in all cases: biochemical
Details in all cases: read-out: Inhibition(%) @ 1 µM RK-019
[1] = target: T1, Abl (M351T)(h) (Homo sapiens, UniProt P00519, M351T)
T1 construct: purchased Eurofins Discovery Services (KinaseProfiler)
Method in brief: (§1)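 Selectivity profiling used one concentration (1 µM) in an ATP-site competition binding assay over 422 recombinant human kinases; data given as inhibition ratio.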

[2] = target: T2, B-Raf(V599E)(h) (Homo sapiens, UniProt P15056, V600E)
T2 construct: purchased Eurofins Discovery Services (KinaseProfiler)
Method in brief: as §1

[3] = target: T3, CDK16/cyclinY(h) (Homo sapiens, UniProt Q00536)
T3 construct: purchased Eurofins Discovery Services (KinaseProfiler)
Method in brief: as §1

[4] = target: T4, CDK9/cyclin T1(h) (Homo sapiens, UniProt P50750)
T4 construct: purchased Eurofins Discovery Services (KinaseProfiler)
Method in brief: as §1

[5] = target: T5, CDKL1(h) (Homo sapiens, UniProt Q00532)
T5 construct: purchased Eurofins Discovery Services (KinaseProfiler)
Method in brief: as §1

[6] = target: T6, CK1γ3(h) (Homo sapiens, UniProt Q9Y6M4)
T6 construct: purchased Eurofins Discovery Services (KinaseProfiler)
Method in brief: as §1

[7] = target: T7, CLIK1(h) (Homo sapiens, UniProt Q8TDR2)
T7 construct: purchased Eurofins Discovery Services (KinaseProfiler)
T7 sequence (Q8TDR2 whole entry): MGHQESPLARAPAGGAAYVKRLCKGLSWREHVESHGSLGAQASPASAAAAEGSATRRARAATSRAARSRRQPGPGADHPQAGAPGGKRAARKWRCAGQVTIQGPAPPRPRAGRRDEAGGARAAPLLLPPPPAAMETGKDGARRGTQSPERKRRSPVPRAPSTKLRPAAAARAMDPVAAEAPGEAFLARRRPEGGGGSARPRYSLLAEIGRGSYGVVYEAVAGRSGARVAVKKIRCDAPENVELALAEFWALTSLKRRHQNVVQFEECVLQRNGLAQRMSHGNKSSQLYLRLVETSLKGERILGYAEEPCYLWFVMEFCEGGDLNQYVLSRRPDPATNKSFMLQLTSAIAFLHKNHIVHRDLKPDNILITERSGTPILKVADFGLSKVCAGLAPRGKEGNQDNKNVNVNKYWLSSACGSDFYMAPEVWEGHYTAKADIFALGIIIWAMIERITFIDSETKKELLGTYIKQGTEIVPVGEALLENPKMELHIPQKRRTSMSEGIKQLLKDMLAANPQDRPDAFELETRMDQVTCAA
Method in brief: as §1

[8] = target: T8, DYRK2(h) (Homo sapiens, UniProt Q92630)
T8 construct: purchased Eurofins Discovery Services (KinaseProfiler)
Method in brief: as §1

[9] = target: T9, ErbB2(h) (Homo sapiens, UniProt P04626)
T9 construct: purchased Eurofins Discovery Services (KinaseProfiler)
Method in brief: as §1

[10] = target: T10, HIPK4(h) (Homo sapiens, UniProt Q8NE63)
T10 construct: purchased Eurofins Discovery Services (KinaseProfiler)
Method in brief: as §1

[11] = target: T11, IGF-1R(h) (Homo sapiens, UniProt P08069)
T11 construct: purchased Eurofins Discovery Services (KinaseProfiler)
Method in brief: as §1

[12] = target: T12, KDR(h) (Homo sapiens, UniProt P35968)
T12 construct: purchased Eurofins Discovery Services (KinaseProfiler)
Method in brief: as §1

[13] = target: T13, Lyn(m) (Mus musculus, UniProt P25911)
T13 construct: purchased Eurofins Discovery Services (KinaseProfiler)

[14] = target: T14, MAPKAP-K3(h) (Homo sapiens, UniProt Q16644)
T14 construct: purchased Eurofins Discovery Services (KinaseProfiler)
Method in brief: as §1

[15] = target: T15, MEK1(h) (Homo sapiens, UniProt Q02750)
T15 construct: purchased Eurofins Discovery Services (KinaseProfiler)
Method in brief: as §1

[16] = target: T16, MEK2(h) (Homo sapiens, UniProt P36507)
T16 construct: purchased Eurofins Discovery Services (KinaseProfiler)
Method in brief: as §1

[17] = target: T17, MLCK(h) (Homo sapiens, UniProt Q15746)
T17 construct: purchased Eurofins Discovery Services (KinaseProfiler)
T17 sequence (Q15746 whole entry): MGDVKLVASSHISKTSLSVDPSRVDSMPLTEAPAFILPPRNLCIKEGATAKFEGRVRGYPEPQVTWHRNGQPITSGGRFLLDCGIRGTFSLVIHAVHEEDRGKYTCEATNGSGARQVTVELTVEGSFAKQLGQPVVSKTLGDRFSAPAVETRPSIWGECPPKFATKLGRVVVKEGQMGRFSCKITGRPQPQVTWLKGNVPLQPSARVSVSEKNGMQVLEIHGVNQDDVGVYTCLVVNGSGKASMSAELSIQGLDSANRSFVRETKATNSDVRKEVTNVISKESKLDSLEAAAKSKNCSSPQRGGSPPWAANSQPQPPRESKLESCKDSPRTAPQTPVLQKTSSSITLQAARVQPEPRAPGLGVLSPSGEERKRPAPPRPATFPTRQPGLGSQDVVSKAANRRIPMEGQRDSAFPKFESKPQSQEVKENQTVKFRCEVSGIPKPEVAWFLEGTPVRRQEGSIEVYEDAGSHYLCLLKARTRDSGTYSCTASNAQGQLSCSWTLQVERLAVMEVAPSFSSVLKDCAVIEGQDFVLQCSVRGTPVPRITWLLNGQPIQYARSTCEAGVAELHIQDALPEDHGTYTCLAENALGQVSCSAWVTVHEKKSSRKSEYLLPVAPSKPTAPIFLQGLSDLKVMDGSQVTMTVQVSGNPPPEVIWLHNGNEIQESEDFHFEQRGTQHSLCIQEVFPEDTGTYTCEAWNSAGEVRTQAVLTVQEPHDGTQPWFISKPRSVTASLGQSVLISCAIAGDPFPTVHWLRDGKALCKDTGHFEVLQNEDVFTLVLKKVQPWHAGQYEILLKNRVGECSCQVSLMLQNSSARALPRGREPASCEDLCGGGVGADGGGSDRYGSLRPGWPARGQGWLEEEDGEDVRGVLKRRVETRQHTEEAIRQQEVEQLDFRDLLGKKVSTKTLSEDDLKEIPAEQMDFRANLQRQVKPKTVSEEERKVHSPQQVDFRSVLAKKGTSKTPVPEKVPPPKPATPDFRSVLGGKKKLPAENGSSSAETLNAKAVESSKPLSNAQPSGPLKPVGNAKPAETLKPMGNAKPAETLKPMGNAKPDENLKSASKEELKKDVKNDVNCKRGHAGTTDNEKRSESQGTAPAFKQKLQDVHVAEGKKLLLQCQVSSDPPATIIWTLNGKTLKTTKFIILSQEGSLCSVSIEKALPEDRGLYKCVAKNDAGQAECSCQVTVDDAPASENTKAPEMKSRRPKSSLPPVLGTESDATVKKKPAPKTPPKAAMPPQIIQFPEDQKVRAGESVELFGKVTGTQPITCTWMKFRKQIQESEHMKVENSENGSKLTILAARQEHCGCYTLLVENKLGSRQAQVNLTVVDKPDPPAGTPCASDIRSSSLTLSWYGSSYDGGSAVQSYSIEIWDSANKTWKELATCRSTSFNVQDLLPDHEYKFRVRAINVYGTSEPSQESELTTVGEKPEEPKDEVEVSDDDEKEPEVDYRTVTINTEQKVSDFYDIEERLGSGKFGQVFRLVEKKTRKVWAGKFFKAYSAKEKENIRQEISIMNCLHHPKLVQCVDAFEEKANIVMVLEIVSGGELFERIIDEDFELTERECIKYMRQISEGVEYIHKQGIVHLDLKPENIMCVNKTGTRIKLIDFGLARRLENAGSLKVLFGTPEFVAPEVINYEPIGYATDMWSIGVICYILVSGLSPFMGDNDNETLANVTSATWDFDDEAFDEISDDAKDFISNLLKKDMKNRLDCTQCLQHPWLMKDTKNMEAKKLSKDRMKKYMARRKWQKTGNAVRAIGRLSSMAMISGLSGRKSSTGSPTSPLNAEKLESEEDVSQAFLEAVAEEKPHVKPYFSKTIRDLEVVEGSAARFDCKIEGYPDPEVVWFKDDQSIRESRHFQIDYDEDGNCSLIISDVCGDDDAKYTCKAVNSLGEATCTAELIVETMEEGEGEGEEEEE
Method in brief: as §1

[18] = target: T18, MRCKβ(h) (Homo sapiens, UniProt Q9Y5S2)
T18 construct: purchased Eurofins Discovery Services (KinaseProfiler)
Method in brief: as §1

[19] = target: T19, Mer(h) (Homo sapiens, UniProt Q12866)
T19 construct: purchased Eurofins Discovery Services (KinaseProfiler)
T19 sequence (Q12866 21-999): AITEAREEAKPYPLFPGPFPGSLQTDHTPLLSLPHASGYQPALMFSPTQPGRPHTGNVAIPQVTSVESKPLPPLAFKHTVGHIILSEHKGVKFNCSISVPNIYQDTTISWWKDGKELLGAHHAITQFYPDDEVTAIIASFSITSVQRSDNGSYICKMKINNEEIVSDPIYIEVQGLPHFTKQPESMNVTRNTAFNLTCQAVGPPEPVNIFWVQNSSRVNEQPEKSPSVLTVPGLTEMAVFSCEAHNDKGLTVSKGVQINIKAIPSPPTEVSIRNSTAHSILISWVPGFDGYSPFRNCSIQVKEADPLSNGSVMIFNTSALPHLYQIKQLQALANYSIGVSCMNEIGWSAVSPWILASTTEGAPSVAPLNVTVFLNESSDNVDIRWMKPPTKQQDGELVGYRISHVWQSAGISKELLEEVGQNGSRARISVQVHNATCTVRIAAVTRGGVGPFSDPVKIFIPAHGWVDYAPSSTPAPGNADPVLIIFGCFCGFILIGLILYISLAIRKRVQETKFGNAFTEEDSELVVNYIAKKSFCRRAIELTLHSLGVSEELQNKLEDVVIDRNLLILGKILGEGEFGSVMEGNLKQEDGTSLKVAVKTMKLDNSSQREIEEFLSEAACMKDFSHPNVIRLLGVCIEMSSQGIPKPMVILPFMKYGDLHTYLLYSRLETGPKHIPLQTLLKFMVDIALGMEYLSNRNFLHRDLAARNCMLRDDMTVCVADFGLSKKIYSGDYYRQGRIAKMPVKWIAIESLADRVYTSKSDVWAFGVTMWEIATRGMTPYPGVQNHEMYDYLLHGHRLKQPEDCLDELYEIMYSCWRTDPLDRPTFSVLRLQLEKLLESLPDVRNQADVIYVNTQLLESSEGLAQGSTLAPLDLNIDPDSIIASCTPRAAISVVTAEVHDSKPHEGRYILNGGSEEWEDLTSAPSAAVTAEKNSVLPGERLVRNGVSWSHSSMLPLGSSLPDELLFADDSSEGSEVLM
Method in brief: as §1

[20] = target: T20, NDR2(h) (Homo sapiens, UniProt Q9Y2H1)
T20 construct: purchased Eurofins Discovery Services (KinaseProfiler)
Method in brief: as §1

[21] = target: T21, NEK4(h) (Homo sapiens, UniProt P51957)
T21 construct: purchased Eurofins Discovery Services (KinaseProfiler)
Method in brief: as §1

[22] = target: T22, NEK6(h) (Homo sapiens, UniProt Q9HC98)
T22 construct: purchased Eurofins Discovery Services (KinaseProfiler)
Method in brief: as §1

[23] = target: T23, PDGFRα(D842V)(h) (Homo sapiens, UniProt P16234, D842V)
T23 construct: purchased Eurofins Discovery Services (KinaseProfiler)
Method in brief: as §1

[24] = target: T24, PI3 Kinase (p110a(E545K)/p85a)(m) (Mus musculus, UniProt P42337, E545K)
T24 construct: purchased Eurofins Discovery Services (KinaseProfiler)

[25] = target: T25, PI3 Kinase (p110a(H1047R)/p85a)(m) (Mus musculus, UniProt P42337, H1047R)
T25 construct: purchased Eurofins Discovery Services (KinaseProfiler)

[26] = target: T26, PI3 Kinase (p110b/p85b)(m) (Mus musculus, UniProt Q8BTI9)
T26 construct: purchased Eurofins Discovery Services (KinaseProfiler)

[27] = target: T27, PIP4K2a(h) (Homo sapiens, UniProt P48426)
T27 construct: purchased Eurofins Discovery Services (KinaseProfiler)
T27 sequence (P48426 whole entry): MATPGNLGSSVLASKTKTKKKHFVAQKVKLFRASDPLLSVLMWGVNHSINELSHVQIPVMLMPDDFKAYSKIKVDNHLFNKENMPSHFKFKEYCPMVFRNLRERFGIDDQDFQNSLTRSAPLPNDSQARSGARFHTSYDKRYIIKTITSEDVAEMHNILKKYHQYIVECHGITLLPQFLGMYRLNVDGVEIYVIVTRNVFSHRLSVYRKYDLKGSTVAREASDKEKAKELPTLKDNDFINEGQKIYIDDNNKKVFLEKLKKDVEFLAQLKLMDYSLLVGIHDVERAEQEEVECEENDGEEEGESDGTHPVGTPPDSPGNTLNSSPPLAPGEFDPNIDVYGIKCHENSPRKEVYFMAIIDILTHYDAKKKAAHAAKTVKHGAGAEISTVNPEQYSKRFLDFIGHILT
Method in brief: as §1

[28] = target: T28, PKA(h) (Homo sapiens, UniProt P17612)
T28 construct: purchased Eurofins Discovery Services (KinaseProfiler)
Method in brief: as §1

[29] = target: T29, PKCβII(h) (Homo sapiens, UniProt P05771)
T29 construct: purchased Eurofins Discovery Services (KinaseProfiler)
Method in brief: as §1

[30] = target: T30, PKCδ(h) (Homo sapiens, UniProt Q05655)
T30 construct: purchased Eurofins Discovery Services (KinaseProfiler)
Method in brief: as §1

[31] = target: T31, PKG1α(h) (Homo sapiens, UniProt Q13976)
T31 construct: purchased Eurofins Discovery Services (KinaseProfiler)
Method in brief: as §1

[32] = target: T32, PhKγ1(h) (Homo sapiens, UniProt Q16816)
T32 construct: purchased Eurofins Discovery Services (KinaseProfiler)
Method in brief: as §1

[33] = target: T33, Src(1-530)(h) (Homo sapiens, UniProt P12931)
T33 construct: purchased Eurofins Discovery Services (KinaseProfiler)
T33 sequence (P12931 1-530 limits assumed): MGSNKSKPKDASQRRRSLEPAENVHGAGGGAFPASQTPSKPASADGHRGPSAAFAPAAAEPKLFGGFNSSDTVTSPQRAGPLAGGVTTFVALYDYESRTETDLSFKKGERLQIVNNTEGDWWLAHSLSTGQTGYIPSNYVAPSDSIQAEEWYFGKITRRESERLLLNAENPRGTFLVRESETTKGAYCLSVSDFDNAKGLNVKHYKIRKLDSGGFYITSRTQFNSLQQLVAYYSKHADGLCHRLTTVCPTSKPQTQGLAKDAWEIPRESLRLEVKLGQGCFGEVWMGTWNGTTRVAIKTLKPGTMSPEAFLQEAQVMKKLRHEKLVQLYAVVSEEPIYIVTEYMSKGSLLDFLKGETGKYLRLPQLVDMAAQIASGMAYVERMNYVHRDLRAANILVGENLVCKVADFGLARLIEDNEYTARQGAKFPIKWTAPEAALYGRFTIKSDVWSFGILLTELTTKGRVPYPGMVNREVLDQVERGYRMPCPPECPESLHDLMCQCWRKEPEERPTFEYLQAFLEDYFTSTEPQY
Method in brief: as §1

[34] = target: T34, Tec(h) activated (Homo sapiens, UniProt P42680)
T34 construct: purchased Eurofins Discovery Services (KinaseProfiler)
T34 sequence (P42680 whole entry): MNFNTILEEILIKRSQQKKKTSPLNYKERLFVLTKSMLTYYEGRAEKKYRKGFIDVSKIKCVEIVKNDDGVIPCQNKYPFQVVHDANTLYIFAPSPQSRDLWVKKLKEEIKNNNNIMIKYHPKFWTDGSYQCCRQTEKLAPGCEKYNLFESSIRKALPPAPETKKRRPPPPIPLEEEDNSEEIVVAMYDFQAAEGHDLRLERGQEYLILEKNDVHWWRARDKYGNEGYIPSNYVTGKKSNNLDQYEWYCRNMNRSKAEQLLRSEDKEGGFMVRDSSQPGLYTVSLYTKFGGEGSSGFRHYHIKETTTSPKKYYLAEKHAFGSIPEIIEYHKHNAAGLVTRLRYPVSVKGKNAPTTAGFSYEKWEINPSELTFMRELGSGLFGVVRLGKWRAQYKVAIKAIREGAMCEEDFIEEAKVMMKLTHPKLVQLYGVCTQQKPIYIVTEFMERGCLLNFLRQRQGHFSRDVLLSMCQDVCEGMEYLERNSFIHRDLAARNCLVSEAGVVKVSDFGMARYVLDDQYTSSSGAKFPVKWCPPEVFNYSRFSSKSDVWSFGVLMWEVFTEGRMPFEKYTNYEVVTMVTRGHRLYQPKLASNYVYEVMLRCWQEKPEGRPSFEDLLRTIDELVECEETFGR
Method in brief: as §1

[35] = target: T35, cKit(D816H)(h) (Homo sapiens, UniProt P10721, D816H)
T35 construct: purchased Eurofins Discovery Services (KinaseProfiler)
Method in brief: as §1

[36] = target: T36, cKit(V654A)(h) (Homo sapiens, UniProt P10721, V654A)
T36 construct: purchased Eurofins Discovery Services (KinaseProfiler)
Method in brief: as §1

## COc1cc(OC)cc(N(CCN[C@H](C)CO)c2ccc3ncc(-c4cnn(C)c4)c(=O)n3c2)c1 [RK-019, (R)-7-((3,5-dimethoxyphenyl) (2-((1-hydroxypropan-2-yl)amino)ethyl)amino)-3-(1-methyl-1H-pyrazol-4-yl)-4H-pyrido [1,2-a]pyrimidin-4-one]
[1]
  activity at 1 µM: 34%
[2]
  activity at 1 µM: 70%
[3]
  activity at 1 µM: 108%
[4]
  activity at 1 µM: 99%
[5]
  activity at 1 µM: 97%
[6]
  activity at 1 µM: 87%
[7]
  activity at 1 µM: 102%
[8]
  activity at 1 µM: 94%
[9]
  activity at 1 µM: 94%
[10]
  activity at 1 µM: 100%
[11]
  activity at 1 µM: 104%
[12]
  activity at 1 µM: 9%
[13]
  activity at 1 µM: 23%
[14]
  activity at 1 µM: 109%
[15]
  activity at 1 µM: 79%
[16]
  activity at 1 µM: 85%
[17]
  activity at 1 µM: 92%
[18]
  activity at 1 µM: 108%
[19]
  activity at 1 µM: 108%
[20]
  activity at 1 µM: 108%
[21]
  activity at 1 µM: 109%
[22]
  activity at 1 µM: 97%
[23]
  activity at 1 µM: 22%
[24]
  activity at 1 µM: 102%
[25]
  activity at 1 µM: 100%
[26]
  activity at 1 µM: 99%
[27]
  activity at 1 µM: 102%
[28]
  activity at 1 µM: 94%
[29]
  activity at 1 µM: 111%
[30]
  activity at 1 µM: 99%
[31]
  activity at 1 µM: 110%
[32]
  activity at 1 µM: 93%
[33]
  activity at 1 µM: 45%
[34]
  activity at 1 µM: 96%
[35]
  activity at 1 µM: 58%
[36]
  activity at 1 µM: 104%
